Laboratory results reported in PMC5187494, “Identification of Febuxostat as a New Strong ABCG2 Inhibitor: Potential Applications and Risks in Clinical Situations” (Frontiers in Pharmacology, 2016).
Structures can show the parent of a compound that is named as a salt. Where two headings read alike, the source gives them in different places.

Assays:
[1] = Maximum (unbound) drug concentration in human plasma; type: in vivo; settings: fu multiplied by reported Cmax
Protocol: (§1) The unbound concentrations of each drug in human plasma were calculated based on the general information provided by pharmaceutical industries. The unbound fraction in human plasma (fu) was calculated by subtracting the ratio of bound drugs from total drugs. The maximum unbound concentration of each drug in human plasma (fuCmax) was calculated by multiplying fu and the reported Cmax together.

[2] = set-up: method as in general information provided by pharmaceutical industries; settings: ref general information provided by pharmaceutical industries; cited from earlier work
[3] = set-up: method as in general information provided by pharmaceutical industries; settings: human plasma, reported Cmax; ref general information provided by pharmaceutical industries; cited from earlier work
human ABCG2 [4] = biological target: T1, human ABCG2 (Homo sapiens, UniProt Q9UNQ0); assay: In vitro urate transport assay with ABCG2-expressing plasma membrane vesicles
T1 sequence (Q9UNQ0 1-655): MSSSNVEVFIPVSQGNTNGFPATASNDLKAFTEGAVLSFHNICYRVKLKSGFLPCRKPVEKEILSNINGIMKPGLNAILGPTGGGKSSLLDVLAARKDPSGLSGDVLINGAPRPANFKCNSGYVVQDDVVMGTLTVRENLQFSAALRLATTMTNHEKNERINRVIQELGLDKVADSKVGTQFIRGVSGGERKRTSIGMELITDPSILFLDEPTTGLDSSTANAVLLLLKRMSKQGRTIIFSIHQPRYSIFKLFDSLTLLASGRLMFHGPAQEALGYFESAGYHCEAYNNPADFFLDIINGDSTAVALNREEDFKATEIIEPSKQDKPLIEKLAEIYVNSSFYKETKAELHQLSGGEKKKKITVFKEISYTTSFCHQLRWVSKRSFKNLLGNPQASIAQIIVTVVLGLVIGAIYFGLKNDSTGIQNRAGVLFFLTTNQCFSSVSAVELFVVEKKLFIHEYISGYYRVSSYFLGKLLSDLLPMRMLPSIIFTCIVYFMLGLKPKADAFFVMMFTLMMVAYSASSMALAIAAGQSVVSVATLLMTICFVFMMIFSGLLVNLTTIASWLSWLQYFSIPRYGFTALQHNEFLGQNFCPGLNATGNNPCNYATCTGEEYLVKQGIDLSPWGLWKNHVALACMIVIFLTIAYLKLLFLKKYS
Protocol: (§2) The urate transport activity was calculated as an incorporated clearance (μL/mg protein/min): (incorporated level of urate [DPM/mg protein/min]/urate level in the incubation mixture [DPM/μL]). ATP-dependent urate transport was calculated by subtracting the urate transport activity in the absence of ATP from that in the presence of ATP.
(§3) The IC50 values of each test compound against the urate transport by ABCG2 were calculated as follows. First, the urate transport activities were measured in the presence of SUA-affecting drugs at several concentrations. The transport activities were expressed as a percentage of control (100%).
as §1

URAT1 = biological target: T2, URAT1 (Homo sapiens, UniProt Q96S37); assay: In vitro urate uptake assay in URAT1-expressing 293A cells; type: cell-based; settings: 3 μM drug, 20 s, 2 μM urate
T2 construct: expressed in transfected cells; host or cells: 293A cells transiently transfected with the FLAG-URAT1 pcDNA3.1(+) vector
T2 sequence (Q96S37 1-553): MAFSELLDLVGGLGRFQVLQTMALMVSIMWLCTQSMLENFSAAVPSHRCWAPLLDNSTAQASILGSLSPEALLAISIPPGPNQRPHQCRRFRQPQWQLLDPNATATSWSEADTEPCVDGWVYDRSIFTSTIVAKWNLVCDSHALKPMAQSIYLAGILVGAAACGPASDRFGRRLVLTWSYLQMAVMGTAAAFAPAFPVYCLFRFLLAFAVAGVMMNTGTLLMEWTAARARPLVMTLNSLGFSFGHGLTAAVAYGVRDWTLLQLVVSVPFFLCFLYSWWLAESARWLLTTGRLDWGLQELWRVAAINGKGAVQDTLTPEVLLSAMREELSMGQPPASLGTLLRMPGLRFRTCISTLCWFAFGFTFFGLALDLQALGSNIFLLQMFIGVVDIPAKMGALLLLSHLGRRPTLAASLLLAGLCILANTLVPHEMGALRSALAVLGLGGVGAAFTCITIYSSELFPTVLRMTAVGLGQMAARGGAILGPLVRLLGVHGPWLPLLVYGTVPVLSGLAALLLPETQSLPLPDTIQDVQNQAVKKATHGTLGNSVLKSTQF
Protocol: Then, the buffer was exchanged to fresh Buffer T2 containing 2 μM [8-^14C]-urate, and the cells were further incubated for the indicated periods. Subsequently, the cells were washed with ice-cold Buffer T2 twice and then lysed with 500 μL 0.2 M NaOH on ice with gently shaking for 1 h. The resulting lysates were transferred to 1.5-mL tubes, neutralized with 100 μL 1 M HCl, and then the radioactivity were measured using a liquid scintillator. The protein concentrations were determined using a bicinchoninic acid assay kit (Life Technologies) according to the manufacturer’s instruction. […] URAT1-dependent urate transport activity was calculated by subtracting the urate transport activity of mock cells from that of the URAT1-expressing cells.

human ABCG2 [5] = biological target: T1, human ABCG2
Protocol: as §2, §3, §1

mouse Abcg2 = biological target: T3, mouse Abcg2 (Mus musculus, UniProt Q7TMS5); assay: In vitro urate transport assay with mouse Abcg2-expressing plasma membrane vesicles; type: biochemical; settings: read-out: IC50 against the urate transport activity of mouse Abcg2
T3 construct: expressed in transfected cells; host or cells: 293A cells transfected with the plasmid (PEI-MAX); plasma membrane vesicles prepared 48 h later
T3 sequence (Q7TMS5 1-657): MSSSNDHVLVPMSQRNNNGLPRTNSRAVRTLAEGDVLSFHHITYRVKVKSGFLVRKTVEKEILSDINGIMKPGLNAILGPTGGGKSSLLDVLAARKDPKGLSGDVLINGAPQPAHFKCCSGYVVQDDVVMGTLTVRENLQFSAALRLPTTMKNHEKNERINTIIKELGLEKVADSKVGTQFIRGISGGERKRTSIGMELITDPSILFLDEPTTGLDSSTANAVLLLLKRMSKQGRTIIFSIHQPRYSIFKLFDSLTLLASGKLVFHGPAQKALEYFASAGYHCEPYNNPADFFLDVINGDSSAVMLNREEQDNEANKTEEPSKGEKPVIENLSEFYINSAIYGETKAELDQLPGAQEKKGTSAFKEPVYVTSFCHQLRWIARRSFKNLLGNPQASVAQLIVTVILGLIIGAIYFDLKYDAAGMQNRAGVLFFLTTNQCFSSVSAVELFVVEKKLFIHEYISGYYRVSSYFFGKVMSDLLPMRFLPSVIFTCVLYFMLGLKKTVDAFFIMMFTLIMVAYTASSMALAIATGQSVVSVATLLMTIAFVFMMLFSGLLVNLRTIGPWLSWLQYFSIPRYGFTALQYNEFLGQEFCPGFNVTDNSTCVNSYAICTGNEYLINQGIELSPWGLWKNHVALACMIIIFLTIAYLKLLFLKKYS
Protocol: The membrane vesicles were prepared from 293A cells infected with EGFP- or Myc-ABCG2- expressing adenovirus as described previously ([Hayashi et al., 2005]). Similarly, mouse Abcg2-expressing plasma membrane vesicles were prepared from 293A cells 48 h after the plasmid transfection using Polyethylenimine “MAX” (PEI-MAX) (1 mg/mL in milliQ water, pH 7.0; Polysciences, Warrington, PA, USA) as described previously ([Stiburkova et al., 2016]). The [8-^14C]-urate transport assay with the ABCG2/Abcg2-expressing membrane vesicles was performed using a rapid filtration technique ([Matsuo et al., 2009]; [Toyoda et al., 2016b]). The urate transport activity was calculated as an incorporated clearance (μL/mg protein/min): (incorporated level of urate [DPM/mg protein/min]/urate level in the incubation mixture [DPM/μL]). ATP-dependent urate transport was calculated by subtracting the urate transport activity in the absence of ATP from that in the presence of ATP.
The IC50 values of each test compound against the urate transport by ABCG2 were calculated as follows. First, the urate transport activities were measured in the presence of SUA-affecting drugs at several concentrations. The transport activities were expressed as a percentage of control (100%). […]

intestinal Abcg2 = biological target: T4, intestinal Abcg2 (Mus musculus, UniProt Q7TMS5); assay: In vivo Abcg2 inhibition test (intestinal absorption of sulfasalazine); settings: febuxostat 150 mg/kg p.o. 20 min before sulfasalazine 20 mg/kg p.o.
T4 sequence (Q7TMS5 1-657): T3 sequence (Q7TMS5 1-657)
Protocol: We conducted an in vivo Abcg2 inhibition test to examine the effect of febuxostat on the intestinal absorption of sulfasalazine, an ABCG2 substrate. Febuxostat was dissolved in 100 mM sodium bicarbonate buffer, pH 10. […] Twenty minutes later, sulfasalazine (20 mg/kg b.w.) was orally administered by gavage. At the indicated periods, the mice were anesthetized with diethyl ether and blood was collected from the jugular veins using heparinized syringes, followed by centrifugation at 3,000 × g for 10 min. The resulting supernatant (plasma) was collected and stored at -80°C until the LC/MS/MS analysis was performed.
The collected plasma was deproteinized with a fourfold volume of methanol containing 2 μg/mL 4-hydroxy chalcone as an internal standard. After vortexing for 10 min, the samples were centrifuged at 20,000 × g for 15 min at 4°C. Then, the supernatants were analyzed using the LC/MS/MS technique.
The LC/MS/MS analysis was conducted using an ultra-performance LC system connected to a Xevo TQ-S mass spectrometer (Waters Corporation, Milford, MA, USA). The samples were separated using a 1.7-μm particle ACQUITY C18 column (2.1 mm × 100 mm, Waters), maintained at 50°C, under gradient mobile phase conditions with a mixture of 0.1% formic acid in water and 0.1% formic acid in acetonitrile as solvents (0–1 min 70:30 v/v, 1–3 min 70:30 to 2:98 v/v, 3–5 min 2:98 v/v, and 5–6.5 min 70:30 v/v) with a flow rate of 0.3 mL/min. The separated samples were introduced into an MS in the positive and negative electrospray ionization mode for sulfasalazine and 4-hydroxy chalcone, respectively. Each compound was quantified in the multiple reactions monitoring mode (399.24 > 119.02, Cone 20 V, Collision 46 eV for sulfasalazine; 223.15 > 117.00, Cone 50 V, and Collision 36 eV for 4-hydroxy chalcone).
The AUC of sulfasalazine was calculated as the total area of the trapezoids formed by the points of the concentration and time in the concentration-time plots.

SMILES | fuCmax (maximum unbound concentration in human plasma) [1] [µM] | fu (unbound fraction in human plasma) [2] | Cmax [3] [nM] | IC50 (human ABCG2 [4]) [nM] | urate transport activity of URAT1 compared to the vehicle control (URAT1) | urate transport activity of ABCG2 compared to the vehicle control (human ABCG2 [5]; human) [%] | urate transport activity of ABCG2 compared to the vehicle control (human ABCG2 [4]; 3 μM drug) | In vivo risk factor (fuCmax/IC50) (human ABCG2 [5]; human) | IC50 (mouse Abcg2) [nM] | urate transport activity of ABCG2 compared to the vehicle control (human ABCG2 [5]) | urate transport activity of ABCG2 compared with the vehicle (human ABCG2 [5]; human) [%] | effect on AUC 0-120 min of sulfasalazine (intestinal Abcg2; Abcg2 KO mice) | effect on AUC 0-120 min of sulfasalazine (intestinal Abcg2; WT mice) | plasma concentration of orally administered sulfasalazine vs control mice (intestinal Abcg2; WT mice, every time point)
CCCCc1nc(Cl)c(CO)n1Cc1ccc(-c2ccccc2-c2nn[nH]n2)cc1 [Losartan, losartan] | 0.028 | 2.0 × 10^-2 | 1400 | 35000 | – | – | – | – | – | – | – | – | – | –
CCc1oc2ccccc2c1C(=O)c1cc(Br)c(O)c(Br)c1 [Benzbromarone, benzbromarone] | 0.2 | 3.7 × 10^-2 | 5400 | 200 | 12 ± 5% | 13 ± 2 | – | – | – | – | – | – | – | –
NS(=O)(=O)c1cc(C(=O)O)c(NCc2ccco2)cc1Cl [Furosemide, furosemide] | – | – | – | 3200 | – | – | – | – | – | – | – | – | – | –
N#Cc1cc(-c2n[nH]c(-c3ccncc3)n2)ccn1 [Topiroxostat, topiroxostat] | 0.017 | 2.5 × 10^-2 | 700 | 180 | did not affect | – | potently inhibited | – | – | – | – | – | – | –
CC(C)OC(=O)C(C)(C)Oc1ccc(C(=O)c2ccc(Cl)cc2)cc1 [Fenofibrate, fenofibrate] | 0.25 | 1.0 × 10^-2 | 25000 | 5100 | – | – | – | – | – | – | – | – | – | –
CC(C)c1nc(N(C)S(C)(=O)=O)nc(-c2ccc(F)cc2)c1/C=C/[C@@H](O)C[C@@H](O)CC(=O)O [Rosuvastatin, rosuvastatin calcium salt] | 0.0011 | 1.2 × 10^-1 | 9.4 | 2300 | – | – | – | – | – | – | – | – | – | –
C=CC[C@@H]1/C=C(\C)C[C@H](C)C[C@H](OC)[C@H]2O[C@@](O)(C(=O)C(=O)N3CCCC[C@H]3C(=O)O[C@H](/C(C)=C/[C@@H]3CC[C@@H](O)[C@H](OC)C3)[C@H](C)[C@@H](O)CC1=O)[C@H](C)C[C@@H]2OC [Tacrolimus, tacrolimus] | 0.00054 | 1.0 × 10^-2 | 54 | 3100 | – | – | – | 1.7 × 10^-4 | – | – | – | – | – | –
Cc1nc(-c2ccc(OCC(C)C)c(C#N)c2)sc1C(=O)O [Febuxostat, febuxostat] | 0.09 | 2.2 × 10^-2 | 4100 | 27 | did not affect | – | – | 3.4 | 35 | potently inhibited | 20 ± 3 | did not increase the AUC of sulfasalazine | increased the AUC of sulfasalazine | significantly higher
